According to BindingDB's records for doi:10.1111/cbdd.12105 (Umdnj-New Jersey Medical School, 2013):

Biological target: Genome polyprotein (Hepatitis C virus genotype 1b (isolate BK), UniProt P26663)
Test: NS5B Inhibition Assay
Conditions: pH 7; 30 °C
Text: Inhibition assay using HCV NS5B.

Genome polyprotein, sequence (P26663 2420-3010 limits assumed): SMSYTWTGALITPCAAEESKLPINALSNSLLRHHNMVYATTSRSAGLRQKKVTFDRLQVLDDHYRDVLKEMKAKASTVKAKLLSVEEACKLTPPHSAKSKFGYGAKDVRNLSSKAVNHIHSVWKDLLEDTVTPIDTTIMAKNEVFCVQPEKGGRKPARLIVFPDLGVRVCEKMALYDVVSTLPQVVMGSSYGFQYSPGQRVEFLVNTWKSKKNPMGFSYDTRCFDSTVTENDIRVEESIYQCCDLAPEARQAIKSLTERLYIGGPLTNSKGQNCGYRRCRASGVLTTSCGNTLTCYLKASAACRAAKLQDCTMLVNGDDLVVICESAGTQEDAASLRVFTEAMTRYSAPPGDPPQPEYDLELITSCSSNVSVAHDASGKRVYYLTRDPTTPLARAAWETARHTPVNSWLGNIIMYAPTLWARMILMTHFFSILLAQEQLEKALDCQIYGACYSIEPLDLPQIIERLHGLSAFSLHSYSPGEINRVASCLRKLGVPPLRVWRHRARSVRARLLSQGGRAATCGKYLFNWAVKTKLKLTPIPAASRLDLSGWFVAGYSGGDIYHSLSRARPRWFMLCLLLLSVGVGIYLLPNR

Structure (SMILES)	IC50 [µM]
COc1cc2c(cc1O)oc(=O)c1c3cc(O)c(O)cc3oc21 [LQB-34]	18
C=CCOc1cc(OCC=C)c2ccc(=O)oc2c1 [Neoflavonoid derivative, 6a]	26.2
COc1cc(OC)c2c(C)cc(=O)oc2c1 [Coumarin derivative, 2b]	54.1
Cc1cc(=O)oc2cc(O)ccc12 [4-Methyl-7-hydroxycoumarin]	33.8
C=CCOc1cc(OCC=C)c2c(-c3ccccc3)cc(=O)oc2c1 [Neoflavonoid derivative, 6c]	30.3
O=c1ccc2c(O)cc(O)cc2o1 [Coumarin derivative, 1a]	39.7
O=c1cc(-c2ccccc2)c2ccc(O)cc2o1 [7-Hydroxy-4-phenyl-chromen-2-one]	41.6
C=CCc1c(O)c(CC=C)c2oc(=O)ccc2c1O [Neoflavonoid derivative, 8a]	17.9
COc1cc(OC)c2ccc(=O)oc2c1 [Coumarin derivative, 2a]	58
O=c1cc(-c2ccccc2)c2c(O)cc(O)cc2o1	27
C=CCOc1cc(OCC=C)c2c(C)cc(=O)oc2c1 [Neoflavonoid derivative, 6b]	38.4
COc1cc(OC)c2c(-c3ccccc3)cc(=O)oc2c1 [5,7-dimethoxy-4-phenyl-chromen-2-one]	63
C=CCc1c(O)c(CC=C)c2oc(=O)cc(-c3ccccc3)c2c1O [Neoflavonoid derivative, 8c]	45.8
O=c1ccc2ccc(O)cc2o1 [umbelliferone]	36.6
Cc1cc(=O)oc2cc(O)cc(O)c12 [Coumarin derivative, 1b]	47.2
